Literature values in patent US12016331B2, “Microemulsions and uses thereof as delivery systems” (ARCHER DANIELS MIDLAND COMPANY, priority 2012, dated 2024).

Row | Structure (SMILES) | LD 50 value, dermal toxicity
1 | CC(O)C(=O)O (centres unmarked) [lactic acid] | greater than 3000 mg/Kg
2 | CCC(=O)O [propionic acid] | 500 mg/kg
